The values below are quoted from earlier work in US20250295156A1, “LOADED GRANULES, THEIR PROCESS OF PRODUCTION AND THEIR USES” (Evie SA, priority 2019, published 2025).

The target in one series is cannabinoid CB2 receptor (Homo sapiens, UniProt P34972).
The conditions of series [1]: humans, orally; no reported psychomotor slowing, negative mood effects, or vital sign abnormalities (Bergamaschi et al., 2011).

cannabinoid CB2 receptor, sequence (P34972 whole entry): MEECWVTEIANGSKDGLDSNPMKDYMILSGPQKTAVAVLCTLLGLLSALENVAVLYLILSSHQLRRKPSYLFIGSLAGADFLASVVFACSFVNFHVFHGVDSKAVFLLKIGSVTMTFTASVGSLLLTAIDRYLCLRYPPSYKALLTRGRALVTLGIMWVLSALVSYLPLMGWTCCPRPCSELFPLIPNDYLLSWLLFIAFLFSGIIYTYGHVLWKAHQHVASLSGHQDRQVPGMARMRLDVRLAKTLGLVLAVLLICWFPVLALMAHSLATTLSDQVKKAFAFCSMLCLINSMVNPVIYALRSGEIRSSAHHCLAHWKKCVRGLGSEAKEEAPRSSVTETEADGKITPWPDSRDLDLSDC

With `C=C(C)[C@@H]1CCC(C)=C[C@H]1c1c(O)cc(CCCCC)cc1O` [Cannabidiol], the “affinity for CB2 receptor” value at cannabinoid CB2 receptor is “very low affinity”. In addition, the well tolerated dose entry in series [1] is reported as “up to 1500 mg/day”.
